Consider 14 molecules from US9340517B2, “Methods of modulating the activity of the MC5 receptor and treatment of conditions related to this receptor” (Mimetica PTY LTD, priority 2008, dated 2016).

The structures appear in SMILES notation.

By IC50 is commonly meant the midpoint of a concentration-inhibition curve.

Tested on in one assay: not given
Assay: not given
As to conditions: oral, after 8-12 weeks of therapy; cited from earlier work.
For the molecule `CC1=C(/C=C/C(C)=C/C=C/C(C)=C\C(=O)O)C(C)(C)CCC1` [isotretinoin, 13-cis-retinoic acid], the “reduction of sebum excretion” value is “up to 90%”.

The assay is the same for the next values; noted with them: oral, by 2 weeks; cited from earlier work.
With `CC1=C(/C=C/C(C)=C/C=C/C(C)=C\C(=O)O)C(C)(C)CCC1` [isotretinoin, 13-cis-retinoic acid], the “reduction of sebum excretion” value is listed as 60-70%.

The target in a further assay is human MC5R (Homo sapiens (Human), UniProt P33032). As to the kind of experiment: Human MC5R radioligand binding assay ([125I] NDP-MSH displacement, membranes).
human MC5R, sequence (P33032 whole entry): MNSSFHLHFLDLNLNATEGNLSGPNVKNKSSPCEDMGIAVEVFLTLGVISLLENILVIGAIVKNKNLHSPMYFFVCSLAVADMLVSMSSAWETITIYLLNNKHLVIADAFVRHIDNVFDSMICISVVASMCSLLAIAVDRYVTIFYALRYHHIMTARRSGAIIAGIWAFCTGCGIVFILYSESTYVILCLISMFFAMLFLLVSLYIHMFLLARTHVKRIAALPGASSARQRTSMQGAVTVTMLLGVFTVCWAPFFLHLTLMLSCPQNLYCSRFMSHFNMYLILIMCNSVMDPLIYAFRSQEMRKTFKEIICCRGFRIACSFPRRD
Conditions: not given
How it is done: Assessments of compound binding to human MC5R (hMC5R)) by displacement of an ^125I-labeled NDP-MSH receptor ligand peptide were performed essentially as described in the data sheets produced by Perkin Elmer to accompany their frozen hMC5R membranes (Perkin Elmer catalog number RBXMC5M400UA).
Na^125I (0.5 mCi, 17.4 Ci/mg) was added to 50 μL sodium phosphate (50 mM, pH 7.4) in an eppendorf tube precoated with IODOGEN. After incubation for 10 mins the phosphate buffer containing the iodine was added to NDP-MSH (10 ul at 1 mg/mL) in a separate eppendorf tube. This was incubated for a further 10 mins. The iodinated NDP-MSH was purified by HPLC on a Zorbax SB 300 column using solvent A: 0.05% TFA and solvent B: 90% acetonitrile 0.045% TFA with a linear gradient, 0-67% B over 60 mins.
Perkin Elmer frozen hMC5 membranes: catalog number RBXMC5M400UA, 0.4 mL/vial; 400 microassays/vial, 0.78 mg/mL protein concentration
Vials of frozen membranes were thawed rapidly immediately before use, diluted with binding buffer and vortexed. Resuspended membranes were kept on ice until they were added to the wells of the plate.
Assays were performed in 96 well polypropylene plates. […] This was incubated for 1 hr at 37° C.
`O=C(NCC1CCN(CC(c2ccccc2)c2ccccc2)C(=O)C(C2CCNCC2)N1)c1ccc2ccccc2c1` (racemic) [Compound 197, N-((1-(2,2-diphenylethyl)-2-oxo-3-(piperidin-4-yl)-1,4-diazepan-5-yl)methyl)-2-naphthamide] yielded an IC50 of less than 1000 nM. `O=C(NCC1CCN(CC(c2ccccc2)c2ccccc2)C(=O)C(CC2CCNCC2)N1)c1ccc2ccccc2c1` (racemic) [Compound 198, N-((1-(2,2-diphenylethyl)-2-oxo-3-(piperidin-4-ylmethyl)-1,4-diazepan-5-yl)methyl)-2-naphthamide] returned an IC50 of less than 1000 nM. With `CC[C@H](CN1CC[C@@H](CNC(=O)Cc2ccc(Cl)cc2Cl)N[C@@H](CCN2CCCCC2)C1=O)c1ccccc1` [Compound 540, 2-(2,4-dichlorophenyl)-N-(((3S,5S)-2-oxo-1-((S)-2-phenylbutyl)-3-(2-(piperidin-1-yl)ethyl)-1,4-diazepan-5-yl)methyl)acetamide], the IC50 was less than 1000 nM.

In turn, `CC[C@H](CN1CC[C@@H](CNC(=O)c2ccc3cc(Cl)ccc3c2)N[C@H](CCN2CCCCC2)C1=O)c1ccccc1` [Compound 582, 6-chloro-N-(((3R,5S)-2-oxo-1-((S)-2-phenylbutyl)-3-(2-(piperidin-1-yl)ethyl)-1,4-diazepan-5-yl)methyl)-2-naphthamide] gave an IC50 of less than 100 nM. Consider `CC[C@@H](CN1CC[C@@H](CNC(=O)c2ccc3cc(Cl)ccc3c2)N[C@H](CCN2CCCCC2)C1=O)c1ccccc1` [Compound 584, 6-chloro-N-(((3R,5S)-2-oxo-1-((R)-2-phenylbutyl)-3-(2-(piperidin-1-yl)ethyl)-1,4-diazepan-5-yl)methyl)-2-naphthamide], for which the IC50 was less than 1000 nM.

The same assay, now with this note: hMC5R binding assay as in Example 102; compounds tested as trifluoroacetate or hydrochloride salts, or as free base.
Turning to `N=C(N)NCCC[C@@H]1N[C@H](CNC(=O)/C=C/c2ccccc2)CCN(CC(c2ccccc2)c2ccccc2)C1=O` [Compound 153, N-(((3S,5S)-1-(2,2-diphenylethyl)-3-(3-guanidinopropyl)-2-oxo-1,4-diazepan-5-yl)methyl)cinnamamide], the half-maximal inhibitory concentration (IC50) was less than 100 nM. Turning to `NCCC[C@@H]1N[C@H](CNC(=O)/C=C/c2ccccc2)CCN(CC(c2ccccc2)c2ccccc2)C1=O` [Compound 213, N-(((3S,5S)-3-(3-aminopropyl)-1-(2,2-diphenylethyl)-2-oxo-1,4-diazepan-5-yl)methyl)cinnamamide], the 50% inhibitory concentration (IC50) was less than 1000 nM. In the case of `O=C(/C=C/c1ccccc1)NC[C@@H]1CCN(CC(c2ccccc2)c2ccccc2)C(=O)[C@H](CCCN2CCCCC2)N1` [Compound 269, N-(((3S,5S)-1-(2,2-diphenylethyl)-2-oxo-3-(3-(piperidin-1-yl)propyl)-1,4-diazepan-5-yl)methyl)cinnamamide], the IC50 is less than 100 nM. For the molecule `NCC[C@@H]1N[C@H](CNC(=O)/C=C/c2ccccc2)CCN(CC(c2ccccc2)c2ccccc2)C1=O` [Compound 282, N-(((3S,5S)-3-(2-aminoethyl)-1-(2,2-diphenylethyl)-2-oxo-1,4-diazepan-5-yl)methyl)cinnamamide], the IC50 was less than 1000 nM. Take `Nc1ccccc1C[C@H]1C(=O)N(CC(c2ccccc2)c2ccccc2)CC[C@H]2CN(C(=O)/C=C/c3ccc(Cl)cc3)CN21` [Compound 453, (5S,9aS)-5-((2-aminobenzyl)-2-(E)-3-(4-chlorophenyl)acryloyl)-7-(2,2-diphenylethyl)hexahydro-1H-imidazo[1,5-d][1,4]diazepin-6(5H)-one]: the IC50 is less than 1000 nM.

Still in this assay, the particulars now being: hMC5R binding assay as in Example 102; compounds tested as trifluoroacetate or hydrochloride salts, or free base.
Take `O=C(NC[C@@H]1CCN(Cc2cc(Cl)cc(Cl)c2)C(=O)[C@H](CCN2CCOCC2)N1)c1ccc2cc(Cl)ccc2c1` [Compound 555]: the IC50 was less than 100 nM.

Regarding `O=C(NC[C@@H]1CCN(Cc2cc(Cl)cc(Cl)c2)C(=O)[C@H](CCN2CCOCC2)N1)c1ccc(Cl)c(Cl)c1` [Compound 556], the IC50 was less than 100 nM. Consider `COc1ccc2cc(C(=O)NC[C@@H]3CCN(Cc4cc(Cl)cc(Cl)c4)C(=O)[C@H](CCN4CCCCC4)N3)ccc2c1` [Compound 568], for which the IC50 was less than 100 nM.
